What all share (assay): relative viability (nuclei count vs DMSO), 5 days (fraction); higher = more cells survive
Compound in the test “AZ628 + Navitoclax”: CC1=C(C=C(C=C1)NC(=O)C2=CC(=CC=C2)C(C)(C)C#N)NC3=CC4=C(C=C3)N=CN(C4=O)C [AZ628] + CC1(C)CCC(c2ccc(Cl)cc2)=C(CN2CCN(c3ccc(C(=O)NS(=O)(=O)c4ccc(N[C@H](CCN5CCOCC5)CSc5ccccc5)c(S(=O)(=O)C(F)(F)F)c4)cc3)CC2)C1 [Navitoclax] (partner 0.5 µM)
The essentials:
(§1)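 Relative viability was taken as the ratio of nuclei in treated wells to nuclei in vehicle wells. Lung cancer cell lines in 1536-well plates received compounds by pin tool one day after seeding, either one drug alone or a fixed anchor-drug dose plus five library-drug doses (not always all listed) in √10 steps. Nuclei were counted on 4× images after 5 days of treatment, and values are medians of duplicate plates.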

Compound in the test “Darinaparsin + AZD7762”: C[As](C)SC[C@H](NC(=O)CC[C@H](N)C(=O)O)C(=O)NCC(=O)O [Darinaparsin] + NC(=O)Nc1cc(-c2cccc(F)c2)sc1C(=O)N[C@H]1CCCNC1 [AZD7762] (partner 0.2 µM)
The method, boiled down:
as §1

Compound in the test “QS11 + Dasatinib”: C1CC2=C(C1)C=C(C=C2)OC3=NC(=C4C(=N3)N(C=N4)CC5=CC=C(C=C5)C6=CC=CC=C6)N[C@@H](CC7=CC=CC=C7)CO [QS11] + Cc1nc(Nc2ncc(C(=O)Nc3c(C)cccc3Cl)s2)cc(N2CCN(CCO)CC2)n1 [Dasatinib] (partner 0.075 µM)
The essentials:
as §1

Compound in the test “AZ628 + Palbociclib”: CC1=C(C=C(C=C1)NC(=O)C2=CC(=CC=C2)C(C)(C)C#N)NC3=CC4=C(C=C3)N=CN(C4=O)C [AZ628] + CC(=O)c1c(C)c2cnc(Nc3ccc(N4CCNCC4)cn3)nc2n(C2CCCC2)c1=O [Palbociclib] (partner 0.5 µM)
The essentials: as §1

In the case of HCC-366, the relative viability stood at 1.01 with AZ628 + Navitoclax (first compound 0.08 µM); 1.09 with AZ628 + Navitoclax (first compound 0.253 µM); 0.997 with AZ628 + Navitoclax (first compound 0.8 µM); 0.97 in the test with AZ628 + Navitoclax (first compound 2.53 µM); 0.598 in the test with AZ628 + Navitoclax (first compound 8 µM); 0.339 with Darinaparsin + AZD7762 (first compound 0.08 µM). Further, the relative viability was found to be 0.222 with Darinaparsin + AZD7762 (first compound 2.53 µM); 0.332 with Darinaparsin + AZD7762 (first compound 8 µM); 0.7 with QS11 + Dasatinib (first compound 0.08 µM); 0.616 with QS11 + Dasatinib (first compound 0.253 µM); 0.578 with QS11 + Dasatinib (first compound 2.53 µM); 0.576 in the test with QS11 + Dasatinib (first compound 8 µM). The relative viability with AZ628 + Palbociclib (first compound 0.08 µM) was found to be 0.383; with AZ628 + Palbociclib (first compound 0.253 µM) it was 0.352; in the test with AZ628 + Palbociclib (first compound 0.8 µM) it was 0.328; with AZ628 + Palbociclib (first compound 2.53 µM), 0.445; in the test with AZ628 + Palbociclib (first compound 8 µM), 0.163.

Turning to NCI-H1944, the relative viability came to 1.14 with AZ628 + Navitoclax (first compound 0.08 µM); 1.04 with AZ628 + Navitoclax (first compound 0.253 µM); 1 with AZ628 + Navitoclax (first compound 0.8 µM); 0.949 with AZ628 + Navitoclax (first compound 2.53 µM); 0.921 with AZ628 + Navitoclax (first compound 8 µM); 0.469 in the test with Darinaparsin + AZD7762 (first compound 0.08 µM). The relative viability with Darinaparsin + AZD7762 (first compound 0.8 µM) came out at 0.518; with Darinaparsin + AZD7762 (first compound 2.53 µM) it was 0.527; with Darinaparsin + AZD7762 (first compound 8 µM) it was 0.427; in the test with QS11 + Dasatinib (first compound 0.08 µM), 0.197; with QS11 + Dasatinib (first compound 0.253 µM), 0.214; with QS11 + Dasatinib (first compound 2.53 µM), 0.226. For the same cell line, the relative viability in the test with QS11 + Dasatinib (first compound 8 µM) was found to be 0.272; with AZ628 + Palbociclib (first compound 0.08 µM) it was 0.359; in the test with AZ628 + Palbociclib (first compound 0.253 µM) it was 0.312; with AZ628 + Palbociclib (first compound 0.8 µM) it was 0.305; in the test with AZ628 + Palbociclib (first compound 2.53 µM), 0.311; with AZ628 + Palbociclib (first compound 8 µM), 0.229.

Take HCC-827: the relative viability with AZ628 + Navitoclax (first compound 0.08 µM) stood at 0.986; with AZ628 + Navitoclax (first compound 0.253 µM), 1; with AZ628 + Navitoclax (first compound 0.8 µM), 0.954; with AZ628 + Navitoclax (first compound 2.53 µM), 1.02; with AZ628 + Navitoclax (first compound 8 µM), 0.811; in the test with Darinaparsin + AZD7762 (first compound 0.08 µM) it was 0.181. Moreover, the relative viability with Darinaparsin + AZD7762 (first compound 0.8 µM) amounted to 0.211; with Darinaparsin + AZD7762 (first compound 2.53 µM) it was 0.188; with Darinaparsin + AZD7762 (first compound 8 µM), 0.188; with QS11 + Dasatinib (first compound 0.08 µM) it was 0.244; in the test with QS11 + Dasatinib (first compound 0.253 µM), 0.26; with QS11 + Dasatinib (first compound 0.8 µM), 0.386. The relative viability with QS11 + Dasatinib (first compound 2.53 µM) is 0.305; with QS11 + Dasatinib (first compound 8 µM), 0.328; with AZ628 + Palbociclib (first compound 0.08 µM), 0.474; with AZ628 + Palbociclib (first compound 0.253 µM), 0.456; in the test with AZ628 + Palbociclib (first compound 0.8 µM) it was 0.357; in the test with AZ628 + Palbociclib (first compound 2.53 µM) it was 0.487. In addition, the relative viability with AZ628 + Palbociclib (first compound 8 µM) came to 0.311.

As to NCI-H727, the relative viability with AZ628 + Navitoclax (first compound 0.08 µM) came to 0.339; with AZ628 + Navitoclax (first compound 0.253 µM), 0.276; with AZ628 + Navitoclax (first compound 0.8 µM), 0.163; with AZ628 + Navitoclax (first compound 2.53 µM), 0.154; with AZ628 + Navitoclax (first compound 8 µM), 0.165; with Darinaparsin + AZD7762 (first compound 0.08 µM) it was 0.556. The relative viability was 0.599 with Darinaparsin + AZD7762 (first compound 0.8 µM); 0.598 in the test with Darinaparsin + AZD7762 (first compound 2.53 µM); 0.581 in the test with Darinaparsin + AZD7762 (first compound 8 µM); 0.297 in the test with QS11 + Dasatinib (first compound 0.08 µM); 0.467 with QS11 + Dasatinib (first compound 0.253 µM); 0.353 with QS11 + Dasatinib (first compound 0.8 µM). Also, the relative viability in the test with QS11 + Dasatinib (first compound 2.53 µM) amounted to 0.554; with QS11 + Dasatinib (first compound 8 µM), 0.438; in the test with AZ628 + Palbociclib (first compound 0.08 µM), 0.553; in the test with AZ628 + Palbociclib (first compound 2.53 µM) it was 0.517; in the test with AZ628 + Palbociclib (first compound 8 µM), 0.363.

With NCI-H1915, the relative viability with AZ628 + Navitoclax (first compound 0.08 µM) is 0.764; in the test with AZ628 + Navitoclax (first compound 0.253 µM), 0.768; with AZ628 + Navitoclax (first compound 0.8 µM) it was 0.79; with AZ628 + Navitoclax (first compound 2.53 µM), 0.689; with AZ628 + Navitoclax (first compound 8 µM), 0.584; in the test with Darinaparsin + AZD7762 (first compound 0.08 µM) it was 0.768. Besides, the relative viability with Darinaparsin + AZD7762 (first compound 0.8 µM) stood at 0.738; with Darinaparsin + AZD7762 (first compound 2.53 µM) it was 0.674; in the test with Darinaparsin + AZD7762 (first compound 8 µM), 0.729; with QS11 + Dasatinib (first compound 0.08 µM), 0.348; with QS11 + Dasatinib (first compound 0.253 µM) it was 0.321; in the test with QS11 + Dasatinib (first compound 2.53 µM) it was 0.35. Moreover, the relative viability with QS11 + Dasatinib (first compound 8 µM) was found to be 0.239; with AZ628 + Palbociclib (first compound 0.08 µM), 0.398; with AZ628 + Palbociclib (first compound 0.253 µM) it was 0.392; with AZ628 + Palbociclib (first compound 0.8 µM), 0.316; with AZ628 + Palbociclib (first compound 2.53 µM), 0.316; with AZ628 + Palbociclib (first compound 8 µM), 0.205.

For NCI-H2347, the relative viability is 0.519 with AZ628 + Navitoclax (first compound 0.08 µM); 0.67 in the test with AZ628 + Navitoclax (first compound 0.253 µM); 0.712 with AZ628 + Navitoclax (first compound 0.8 µM); 0.638 with AZ628 + Navitoclax (first compound 2.53 µM); 0.368 with AZ628 + Navitoclax (first compound 8 µM); 0.668 with Darinaparsin + AZD7762 (first compound 0.08 µM). The relative viability is 0.583 with Darinaparsin + AZD7762 (first compound 0.8 µM); 0.734 with Darinaparsin + AZD7762 (first compound 2.53 µM); 0.871 with Darinaparsin + AZD7762 (first compound 8 µM); 0.279 in the test with QS11 + Dasatinib (first compound 0.08 µM); 0.297 in the test with QS11 + Dasatinib (first compound 0.253 µM); 0.308 in the test with QS11 + Dasatinib (first compound 0.8 µM). For the same cell line, the relative viability with QS11 + Dasatinib (first compound 2.53 µM) turned out to be 0.274; with QS11 + Dasatinib (first compound 8 µM), 0.308; with AZ628 + Palbociclib (first compound 0.08 µM), 0.468; in the test with AZ628 + Palbociclib (first compound 0.253 µM), 0.352; with AZ628 + Palbociclib (first compound 0.8 µM), 0.266; with AZ628 + Palbociclib (first compound 2.53 µM), 0.403. Also, the relative viability in the test with AZ628 + Palbociclib (first compound 8 µM) was 0.344.

Take NCI-H647: the relative viability in the test with AZ628 + Navitoclax (first compound 0.08 µM) was found to be 1.29; in the test with AZ628 + Navitoclax (first compound 0.253 µM), 1.1; with AZ628 + Navitoclax (first compound 0.8 µM), 1.21; in the test with AZ628 + Navitoclax (first compound 2.53 µM), 1.19; with AZ628 + Navitoclax (first compound 8 µM), 1.02; in the test with Darinaparsin + AZD7762 (first compound 0.08 µM) it was 0.81. Besides, the relative viability was determined as 0.572 with Darinaparsin + AZD7762 (first compound 0.8 µM); 0.375 in the test with Darinaparsin + AZD7762 (first compound 2.53 µM); 0.534 in the test with Darinaparsin + AZD7762 (first compound 8 µM); 0.164 with QS11 + Dasatinib (first compound 0.08 µM); 0.219 in the test with QS11 + Dasatinib (first compound 0.253 µM); 0.216 with QS11 + Dasatinib (first compound 0.8 µM). In addition, the relative viability in the test with QS11 + Dasatinib (first compound 2.53 µM) turned out to be 0.184; with QS11 + Dasatinib (first compound 8 µM) it was 0.205; in the test with AZ628 + Palbociclib (first compound 0.08 µM) it was 0.493; in the test with AZ628 + Palbociclib (first compound 0.253 µM), 0.43; in the test with AZ628 + Palbociclib (first compound 0.8 µM) it was 0.322; with AZ628 + Palbociclib (first compound 2.53 µM), 0.357. Moreover, the relative viability with AZ628 + Palbociclib (first compound 8 µM) turned out to be 0.289.

Take CAL-12T: the relative viability was found to be 1.33 in the test with AZ628 + Navitoclax (first compound 0.08 µM); 1.24 in the test with AZ628 + Navitoclax (first compound 0.8 µM); 1.28 with AZ628 + Navitoclax (first compound 2.53 µM); 0.826 with AZ628 + Navitoclax (first compound 8 µM); 0.773 with Darinaparsin + AZD7762 (first compound 0.08 µM); 0.541 in the test with Darinaparsin + AZD7762 (first compound 0.8 µM). In addition, the relative viability with Darinaparsin + AZD7762 (first compound 2.53 µM) came to 0.694; with Darinaparsin + AZD7762 (first compound 8 µM) it was 0.648; in the test with QS11 + Dasatinib (first compound 0.08 µM), 0.4; with QS11 + Dasatinib (first compound 0.253 µM) it was 0.365; in the test with QS11 + Dasatinib (first compound 0.8 µM) it was 0.466; with QS11 + Dasatinib (first compound 2.53 µM), 0.368. The relative viability with QS11 + Dasatinib (first compound 8 µM) is 0.334; in the test with AZ628 + Palbociclib (first compound 0.08 µM), 0.473; in the test with AZ628 + Palbociclib (first compound 0.253 µM), 0.304; in the test with AZ628 + Palbociclib (first compound 0.8 µM), 0.209; with AZ628 + Palbociclib (first compound 2.53 µM), 0.232; with AZ628 + Palbociclib (first compound 8 µM), 0.161.

(Values after the supplement of paper PMC10307832.)
